# According to US20180044686A1, “TOOLS AND METHODS FOR USING CELL DIVISION LOCI TO CONTROL PROLIFERATION OF CELLS” (Sinai Health System, priority 2015, published 2018):
# Tests used:
# [1] = system: subcutaneous teratomas comprising ALINK-modified mouse C2 cells; assay: Teratoma assay, ALINK-modified mouse C2 ES cells; format: in vivo
# Description: (§1) Matrigel Matrix High Concentration (Corning) was diluted 1:3 with cold DMEM media on ice. 5-10×10^6 cells were suspended into 100 ul of 66% DMEM+33% Matrigel media and injected subcutaneously into either or both dorsal flanks of B6N mice (for mouse C2 ES cells) and NOD-SCID mice (for human ES cells). Teratomas formed 2-4 weeks after injection. Teratoma size was measured by caliper, and teratoma volume was calculated using the formula V=(L×W×H)π/6. GCV/PBS treatment was performed by daily injection with 50 mg/kg into the peritoneal cavity with different treatment durations. At the end of treatment, mice were sacrificed and tumors were dissected and fixed in 4% paraformaldehyde for histology analysis.
# [2] = system: subcutaneous teratomas comprising ALINK-modified H1 ES cells; assay: Teratoma assay, ALINK-modified human ES cells; format: in vivo, mouse (human ES cell graft); settings: NOD scid gamma mouse hosts; two rounds of GCV (15 days + 40 days)
# Description: as §1
# [3] = system: ALINK-modified MMTV-PyMT-transformed mammary epithelial tumorigenic cell grafts; assay: Mammary gland tumor assay; format: in vivo, mouse; settings: B6N hosts; GCV 50 mg/kg every other day i.p.
# Source text: Chimeras of Cdk1^+/+, +/loxp-alink mouse C2 ES and CD-1 backgrounds were generated through diploid aggregation, and then were bred with B6N WT mice to generate Cdk1^+/+, +/loxp-alink mice through germline transmission. Cdk1^+/+, +/loxp-alink mice were bred with Ella-Cre mice to generate Cdk1^+/+, +/alink mice. Cdk1^+/+, +/alink mice were then bred with MMTV-PyMT mice (Guy et al., 1992) to get double-positive pups with mammary gland tumors and ALINK modification. Mammary gland tumors with fail-safe modification were isolated, cut into 1 mm^3 pieces, and transplanted into the 4th mammary gland of wild-type B6N females. GCV/PBS treatment was injected every other day at the dosage of 50 mg/kg into the peritoneal cavity with different treatment durations. Mammary gland tumor size was measured by calipers and calculated with the formula V=Length*Width*Height*π/6.
# [4] = system: mixed culture of non-dividing neurons and dividing NEPs derived from Cdk1+/+,+/alink human CA1 ES cells; assay: Neuronal progenitor vs. neuron killing assay; format: cell-based; settings: GCV 10 uM every other day for 20 days
# Description: Cdk1^+/+, +/alink human CA1 ES cells were differentiated to neural epithelial progenitor cells (NEPs). NEPs were subsequently cultured under conditions for differentiation into neurons, thereby generating a mixed culture of non-dividing neurons and dividing NEPs, which were characterized by immunostaining of DAPI, Ki67 and Sox2. GCV (10 uM) was provided to the mixed culture every other day for 20 days. Then, GCV was withdrawn from culture for 4 days before cells were fixed by 4% PFA. Fixed cells were immunostained for proliferation marker Ki67 to check whether all the leftover cells have exited cell cycle, and mature neutron marker beta-TublinIII.
# [5] = cited from earlier work
# [6] = system: homozygous Cdk1 dox-bridge knock-in mouse ES cells; assay: Targeted cell growth of Cdk1 dox-bridge (EARC) ES cells; format: cell-based; settings: withdrawal of doxycycline
# Description: F3-bridge targeted cells were trypsinized and plated on gelatinized 24 well plates at a density of 5×10^4 cells per well. Starting one day after plating, cell counting was performed by trypsinizing 3 wells for each condition and counting live cells using a Countess automated cell counter (Life Technologies). Doxycycline was removed or reduced to 0.05 ng/ml 2 days after plating and live cells were counted every day up to 18 days in the different conditions.
# Top2a-EARC ES cells = assay: Targeted cell growth of Top2a-EARC ES cells; format: cell-based, mouse; settings: withdrawal of doxycycline
# Description: (§2) Top2a homozygously-targeted cells were trypsinized and plated on gelatinized 24 well plates at a density of 5×10^4 cells per well. Starting one day after plating, cells were exposed to different Dox concentrations (1 μg/ml, 0.5 μg/ml, 0.05 μg/ml and 0 μg/ml), the plate was analyzed in a IncucyteZoom system (Essen Bioscience) by taking pictures every two hours for 3-4 days and measuring confluency.
# Cenpa-EARC ES cells = assay: Targeted cell growth of Cenpa-EARC ES cells; format: cell-based, mouse; settings: withdrawal of doxycycline
# Description: as §2, with “Cenpa” for “Top2a”
# Birc5-EARC ES cells = assay: Targeted cell growth of Birc5-EARC ES cells; format: cell-based, mouse; settings: withdrawal of doxycycline
# Description: as §2, with “Birc5” for “Top2a”, “confluence.” for “confluency.”
# Eef2-EARC ES cells = assay: Targeted cell growth of Eef2-EARC ES cells; format: cell-based, mouse; settings: withdrawal of doxycycline
# Description: as §2, with “Eef2” for “Top2a”, “confluence.” for “confluency.”
compound,measurement,setting,value
"Nc1nc(O)c2ncn(COC(CO)CO)c2n1 [GCV, ganciclovir]",effect on quiescent cells of the teratoma,[1]; GCV 50 mg/kg daily i.p.,did not affect quiescent cells of the teratoma
same,teratoma growth,[1]; GCV 50 mg/kg daily i.p.,stops teratoma growth
same,teratoma dormancy,[1]; brief (3 week) GCV treatment period,sufficient to render the teratomas dormant
same,teratoma dormancy,[2],rendered the teratomas to dormancy
same,mammary gland tumor dormancy,[3],able to render the mammary gland tumors to dormancy
same,killing of dividing NEPs,[4],killed the dividing NEPs
same,killing of non-dividing neurons,[4],did not kill the non-dividing neurons
Ppan,CS score,"[5]; CRISPR score average provided in Wang et al., 2015, score of the gene locus (predicted CDL)",−1.62
C[C@H]1c2cccc(O)c2C(=O)C2=C(O)[C@]3(O)C(=O)C(C(N)=O)=C(O)[C@@H](N(C)C)[C@@H]3[C@@H](O)[C@@H]21 [doxycycline],time to complete elimination of mitotically active ES cells,[6],≤ 5 days
same,time to complete elimination of mitotically active ES cells,Top2a-EARC ES cells,≤ 4 days
same,time to complete elimination of mitotically active ES cells,Cenpa-EARC ES cells,≤ 4 days
same,time to complete elimination of mitotically active ES cells,Birc5-EARC ES cells,≤ 4 days
same,time to complete elimination of mitotically active ES cells,Eef2-EARC ES cells,≤ 4 days
Bms1,"CS score (CRISPR score average provided in Wang et al., 2015)","[5]; gene locus (predicted CDL), CRISPR score average",−1.36
